For one data set, the system named is pUAS_GFP_mandi. As to the kind of experiment: Mandipropamid control of transcription, pUAS_GFP_mandi transient assay, anti-GFP Western blot. The class given is in vivo, N. benthamiana. The note with it: 50 μM mandipropamid, 24 hours; FIG. 14. The method, then: To establish if the orthogonal mandipropamid response module could be used to control transcriptional responses in vivo, we designed an experimental system where PYR1*^-MANDI was fused to the GAL4 AD, and HAB1* fused to its BD. Nuclear export sequences were added to the BD-HAB1* component to reduce its access to the nucleus in the absence of mandipropamid and thereby reduce background transcription from the UAS. The constructs were assembled into a plant transformation vector along with a GAL4-responsive UAS in front of a CaMV minimal promoter driving GFP. The plant transformation vector used was a derivative of pCB308 (Xiang, Han, Lutziger, Wang, & Oliver, 1999) in which a kanamycin resistance marker cassette replaces the vector's centrally located uidA and bar expression cassettes. […]
The resultant construct (pUAS_GFP_mandi) was tested using transient assays in N. benthamiana, as described above. […] 24 hours later, leaf tissue was collected, frozen in liquid N2, and homogenized by bead beating using Precellys instrument (Bertin Technologies), for 6000 rpm for 30 seconds and then resuspended in SDS sample buffer containing protease inhibitor, separated by SDS-PAGE, electro-blotted onto nitrocellulose membrane and detected using an anti-GFP antibody as described in Example 4 above.
A general note: A western blot detects proteins with antibodies after separation by electrophoresis.

Data set [1] can be described thus: Phosphatase activity of recombinant GST-HAB1 proteins (4-methylumbeliferyl phosphate). Format: biochemical. The note with it: 1 μg protein, percent control (GST-HAB1); FIG. 7. The text has this: In the presence of ABA, wild type PYR1 binds to HAB1 and docks into its active site, which inhibits its enzymatic activity by blocking access of substrates. To characterize the orthogonal PYR1^! and HAB1^! interaction biochemically, we produced recombinant forms of each protein in E. coli, along with the wild type form, and tested the wild type and orthogonal mutant for their ability to inhibit HAB1 and HAB1^! activities in vitro. We cloned PYR1^! into pET28 to generate 6×-His tagged receptor and cloned HAB1^! into pGEX-4T-1 to create a GST-fusion protein. The previously constructed (S.-Y. Park et al., 2009) wild type 6×-His-PYR1 and GST-HAB1 constructs were used for producing recombinant wild type proteins. The 6×-His-tagged receptors and GST-tagged PP2Cs were expressed and purified as previously described. […] The plates were read using a Victor 2 plate reader (PerkinElmer) (355 nm excitation, 460 nm emission) and assays run in triplicate. The PP2C activity values reported are expressed as percent control values, which were calculated by including the carrier solvent (1% DMSO) and the specific receptor assayed, but no ligand. […]
To characterize HAB1^!-3 and HAB1* in vitro, we cloned them into pGEX-4T-1 to create GST-fusion proteins. […] The PP2C activity values reported are expressed as percent control (GST-HAB1) from triplicate measurements.

Marks after values point to notes of the source that are not given here.

For `C#CCOc1ccc(CCNC(=O)C(OCC#C)c2ccc(Cl)cc2)cc1OC` (centres unmarked) [mandipropamid], the GFP production result in the data set with pUAS_GFP_mandi is on record as “mandipropamid inducible GFP production”.

B1: HAB1*: catalytically inactive orthogonal pentuple HAB1 mutant (protein, listed as Arabidopsis thaliana)
chain: MTPAVAMTLSLAANTMCESSPVEITQLKNVTDAADLLSDSENQSFCNGGTECTMEDVSELEEVGEQDLLKTLSDTRSGSSNVFDEDDVLSVVEDNSAVISEGLLVVDAGSELSLSNTAMEIDNGRVLATAIIVGESSIEQVPTAEVLIAGVNQDTNTSEVVIRLPDENSNHLVKGRSVYELDCIPLWGTVSIQGNASEMEAAFAVSPHFLKLPIKMLMGDHEGMSPSLTHLTGHFFGVYDGHGGHKVADYCRDRLHFALAEEIERIKDELCKRNTGEGRQVQWDKVFTSCFLTVDGEIEGKIGRAVVGSSDKVLEAVADETVGSTAVVALVCSSHIVVSNCGDSRAVLFRGKEAMPLSVDHKPDREDEYARIENAGGKVIQWQGARVFGRLAMSRSIGDRYLKPYVIPEPEVTFMPRSREDECLILASDGLWDVMNNQEVCEIARRRILMWHKKNGAPPLAERGKGIDPACQAAADYLSMLALQKGSKDNISIIVIDLKAQAKFKTRT
For the molecule B1, in data set [1], the “catalytic activity in vitro” value is “Neither HAB1^!-3 or HAB1* display detectable catalytic activity”.

Values taken from patent US10919943B2, “Mutant proteins enabling agrochemical control of plant gene expression” (The Regents of the University of California, priority 2016, dated 2021).
